Test results taken from patent US9518018B2, “3-alkoxy, thioalkyl and amino-4-amino-6-(substituted)picolinates and their use as herbicides” (Dow AgroSciences LLC, priority 2011, dated 2016).

Test system: desired test plant species
Experiment: Foliar-applied postemergence herbicidal activity in direct seeded rice (Table 6)
Type: in vivo
Conditions: 21 DAA
Source text: Seeds or nutlets of the desired test plant species were planted in a soil matrix prepared by mixing a loam soil (43 percent silt, 19 percent clay, and 38 percent sand, with a pH of about 8.1 and an organic matter content of about 1.5 percent) and river sand in an 80 to 20 ratio. The soil matrix was contained in plastic pots with a surface area of 139.7 cm^2. When required to ensure good germination and healthy plants, a fungicide treatment and/or other chemical or physical treatment was applied. The plants were grown for 10-17 d in a greenhouse with an approximate 14-h photoperiod which was maintained at about 29° C. during the day and 26° C. during the night. Nutrients and water were added on a regular basis and supplemental lighting was provided with overhead metal halide 1000-Watt lamps as necessary. The plants were employed for testing when they reached the second or third true leaf stage. Treatments consisted of compounds 45, 34, and 66. Weighed amounts of technical compounds were placed in individual 25 mL glass vials and dissolved in 8 mL of 97:3 v/v acetone-DMSO to obtain stock solutions. […] The spray application solutions were prepared by removing 4 mL of the stock solution and diluting with 4 mL of 97:3 v/v acetone-DMSO and continued serial dilution to obtain 1⁄2×, 1⁄4×, 1⁄8×, and 1/16× rates of the high rate. Spray solutions were diluted to the appropriate final concentrations with the addition of 8 mL of an aqueous mixture of 1.875% (v/v) Agri-dex crop oil concentrate. The final 12-mL spray solutions each contained 1.25% (v/v) Agri-dex crop oil concentrate, 32.3% acetone, and 1.0% DMSO. Compound requirements are based upon a 12 mL application volume at a rate of 187 L/ha. Spray solutions were applied to the plant material with an overhead Mandel track sprayer equipped with […] nozzles calibrated to deliver 187 L/ha over an application area of 0.503 square meters (m^2) at a spray height of 18 inches ([…]) above average plant canopy height. Control plants were sprayed in the same manner with the solvent blank. The treated plants and control plants were placed in a greenhouse as described above and watered by sub-irrigation to prevent wash-off of the test compounds. After approximately 3 weeks, the condition of the test plants, compared with that of the untreated plants, was determined visually and scored on a scale of 0 to 100 percent where 0 corresponds to no injury and 100 corresponds to complete kill. By applying the well-accepted probit analysis as described by J. Berkson in Journal of the […], 48, 565 (1953) and by D. Finney in “Probit Analysis” Cambridge University Press (1952) or by plotting the mean data and fitting a logarithmic curve to the portion of the data where there was a dose response using Microsoft Excel®, the above data can be used to calculate GR50 and GR90 values, which are defined as growth reduction factors that correspond to the effective dose of herbicide required to kill or control 50 percent or 90 percent, respectively, of a target plant.

## COc1c(C(=O)OCc2ccccc2)nc(-c2ccc(Cl)c(OC)c2F)c(F)c1N [Compound 66, benzyl 4-amino-6-(4-chloro-2-fluoro-3-methoxyphenyl)-5-fluoro-3-methoxypicolinate]
ECHCO (Echinochloa colonum, junglerice), 4.38 g ae/ha
  Mean Visual Injury (%)-21 Days After Application ECHCO: 80%
ECHCO (Echinochloa colonum, junglerice), 8.75 g ae/ha
  Mean Visual Injury (%)-21 Days After Application ECHCO: 89%
ECHCO (Echinochloa colonum, junglerice), 17.5 g ae/ha
  Mean Visual Injury (%)-21 Days After Application ECHCO: 93%
ECHCO (Echinochloa colonum, junglerice), 35 g ae/ha
  Mean Visual Injury (%)-21 Days After Application ECHCO: 94%
ECHCO (Echinochloa colonum, junglerice), 70 g ae/ha
  Mean Visual Injury (%)-21 Days After Application ECHCO: 94%
ECHCO (Echinochloa colonum, junglerice), dose to kill or control 50 percent
  GR50 ECHCO: <2.19 g ae/ha
ECHCO (Echinochloa colonum, junglerice), dose to kill or control 90 percent
  GR90 ECHCO: 11.6 g ae/ha
LEFCH (Leptochloa chinensis, Chinese sprangletop), 2.19 g ae/ha
  Mean Visual Injury (%)-21 Days After Application LEFCH: 0%
LEFCH (Leptochloa chinensis, Chinese sprangletop), 4.38 g ae/ha
  Mean Visual Injury (%)-21 Days After Application LEFCH: 7%
LEFCH (Leptochloa chinensis, Chinese sprangletop), 8.75 g ae/ha
  Mean Visual Injury (%)-21 Days After Application LEFCH: 15%
LEFCH (Leptochloa chinensis, Chinese sprangletop), 17.5 g ae/ha
  Mean Visual Injury (%)-21 Days After Application LEFCH: 32%
LEFCH (Leptochloa chinensis, Chinese sprangletop), 35 g ae/ha
  Mean Visual Injury (%)-21 Days After Application LEFCH: 26%
LEFCH (Leptochloa chinensis, Chinese sprangletop), 70 g ae/ha
  Mean Visual Injury (%)-21 Days After Application LEFCH: 40%
LEFCH (Leptochloa chinensis, Chinese sprangletop), dose to kill or control 50 percent
  GR50 LEFCH: >70 g ae/ha
LEFCH (Leptochloa chinensis, Chinese sprangletop), dose to kill or control 90 percent
  GR90 LEFCH: >70 g ae/ha
ORYSA (Oryza sativa ‘Clearfield 171’, rice), 2.19 g ae/ha
  Mean Visual Injury (%)-21 Days After Application ORYSA ‘Clearfield 171’: 0%
ORYSA (Oryza sativa ‘Clearfield 171’, rice), 4.38 g ae/ha
  Mean Visual Injury (%)-21 Days After Application ORYSA ‘Clearfield 171’: 0%
ORYSA (Oryza sativa ‘Clearfield 171’, rice), 8.75 g ae/ha
  Mean Visual Injury (%)-21 Days After Application ORYSA ‘Clearfield 171’: 1%
ORYSA (Oryza sativa ‘Clearfield 171’, rice), 17.5 g ae/ha
  Mean Visual Injury (%)-21 Days After Application ORYSA ‘Clearfield 171’: 2%
ORYSA (Oryza sativa ‘Clearfield 171’, rice), 35 g ae/ha
  Mean Visual Injury (%)-21 Days After Application ORYSA ‘Clearfield 171’: 6%
ORYSA (Oryza sativa ‘Clearfield 171’, rice), 70 g ae/ha
  Mean Visual Injury (%)-21 Days After Application ORYSA ‘Clearfield 171’: 8%
ORYSA (Oryza sativa ‘Clearfield 171’, rice), dose to kill or control 50 percent
  GR50 ORYSA ‘Clearfield 171’: >70 g ae/ha
ORYSA (Oryza sativa ‘Clearfield 171’, rice), dose to kill or control 90 percent
  GR90 ORYSA ‘Clearfield 171’: >70 g ae/ha
ORYSA (Oryza sativa ‘Wells’, rice), 2.19 g ae/ha
  Mean Visual Injury (%)-21 Days After Application ORYSA ‘Wells’: 0%
ORYSA (Oryza sativa ‘Wells’, rice), 4.38 g ae/ha
  Mean Visual Injury (%)-21 Days After Application ORYSA ‘Wells’: 0%
ORYSA (Oryza sativa ‘Wells’, rice), 8.75 g ae/ha
  Mean Visual Injury (%)-21 Days After Application ORYSA ‘Wells’: 0%
ORYSA (Oryza sativa ‘Wells’, rice), 17.5 g ae/ha
  Mean Visual Injury (%)-21 Days After Application ORYSA ‘Wells’: 2%
ORYSA (Oryza sativa ‘Wells’, rice), 35 g ae/ha
  Mean Visual Injury (%)-21 Days After Application ORYSA ‘Wells’: 0%
ORYSA (Oryza sativa ‘Wells’, rice), 70 g ae/ha
  Mean Visual Injury (%)-21 Days After Application ORYSA ‘Wells’: 0%
ORYSA (Oryza sativa ‘Wells’, rice), dose to kill or control 50 percent
  GR50 ORYSA ‘Wells’: >70 g ae/ha
ORYSA (Oryza sativa ‘Wells’, rice), dose to kill or control 90 percent
  GR90 ORYSA ‘Wells’: >70 g ae/ha
SCPJU (Scirpus juncoides, Japanese bulrush), 2.19 g ae/ha
  Mean Visual Injury (%)-21 Days After Application SCPJU: 100%
SCPJU (Scirpus juncoides, Japanese bulrush), 4.38 g ae/ha
  Mean Visual Injury (%)-21 Days After Application SCPJU: 88%
SCPJU (Scirpus juncoides, Japanese bulrush), 8.75 g ae/ha
  Mean Visual Injury (%)-21 Days After Application SCPJU: 100%
SCPJU (Scirpus juncoides, Japanese bulrush), 17.5 g ae/ha
  Mean Visual Injury (%)-21 Days After Application SCPJU: 100%
SCPJU (Scirpus juncoides, Japanese bulrush), 35 g ae/ha
  Mean Visual Injury (%)-21 Days After Application SCPJU: 100%
SCPJU (Scirpus juncoides, Japanese bulrush), 70 g ae/ha
  Mean Visual Injury (%)-21 Days After Application SCPJU: 100%
SCPJU (Scirpus juncoides, Japanese bulrush), dose to kill or control 50 percent
  GR50 SCPJU: <42.19 g ae/ha
SCPJU (Scirpus juncoides, Japanese bulrush), dose to kill or control 90 percent
  GR90 SCPJU: 4.9 g ae/ha
SEBEX (Sesbania exaltata, hemp sesbania), 2.19 g ae/ha
  Mean Visual Injury (%)-21 Days After Application SEBEX: 53%
SEBEX (Sesbania exaltata, hemp sesbania), 4.38 g ae/ha
  Mean Visual Injury (%)-21 Days After Application SEBEX: 90%
SEBEX (Sesbania exaltata, hemp sesbania), 8.75 g ae/ha
  Mean Visual Injury (%)-21 Days After Application SEBEX: 99%
SEBEX (Sesbania exaltata, hemp sesbania), 17.5 g ae/ha
  Mean Visual Injury (%)-21 Days After Application SEBEX: 99%
SEBEX (Sesbania exaltata, hemp sesbania), 35 g ae/ha
  Mean Visual Injury (%)-21 Days After Application SEBEX: 100%
SEBEX (Sesbania exaltata, hemp sesbania), 70 g ae/ha
  Mean Visual Injury (%)-21 Days After Application SEBEX: 100%
SEBEX (Sesbania exaltata, hemp sesbania), dose to kill or control 50 percent
  GR50 SEBEX: <2.19 g ae/ha
SEBEX (Sesbania exaltata, hemp sesbania), dose to kill or control 90 percent
  GR90 SEBEX: 5.8 g ae/ha
